Read-outs that look alike come from different tables or passages of the source. Where a SMILES comes first, the peptide text is derived from it.
Experiments:
[1] = molecular target: T1, recombinant alpha-glucosidase from S. cerevisiae (maltase) (Saccharomyces cerevisiae, UniProt P53341); assay: biochemical; assay type: biochemical; settings: for IC50: Table 2
T1 construct: purchased Sigma G0660-750UN
Procedure: 20 μl of α-glucosidase in 0.1M potassium phosphate buffer (pH 6.8) at 1.6 U/ml is mixed with 8 μl of the peptide sample or of the reference inhibitor at different concentrations.
The samples are solubilized beforehand in milliQ water containing 10% DMSO (available from Sigma under reference 472301).
After preincubation at 37° C. for 15 min, 20 μl of the substrate p-NPG at 20 mM in 0.1M potassium phosphate buffer (pH 6.8) is added to the mixture in order to start the reaction.
The reaction medium is incubated for 30 min at 37° C. and then the reaction is stopped by adding 80 μl of a 1M solution of sodium carbonate (Na2CO3).
The quantity of product formed (p-nitrophenyl) is measured by reading the absorbance at 410 nm using the Fluostar Omega spectrophotometer (BMG Labtech, Germany).
(§1) All the inhibition tests are carried out in triplicate.
The enzyme used is recombinant alpha-glucosidase from S. cerevisiae (it is a maltase available from Sigma, under reference G0660-750UN).
The substrate used is 4-nitrophenyl α-D-glucopyranoside (p-NPG) (available from Sigma under reference N1377).

db/db mice = assay: Oral test of tolerance to maltose in vivo in db/db mice (Example 5); settings: maltose 2 g/kg
Procedure: The inhibitory activity of the AP and VAP peptides and the effect of the AP and VAP peptides on the glycaemic response can be measured in an oral test of tolerance to maltose in vivo in db/db mice that have a glucose intolerance of genetic origin. The mice are 4 weeks of age and each mouse is its own control. A dose of maltose (2 g/kg) was used in order to cause a temporary increase in glycaemia. Four (4) oral tests of tolerance to maltose (2 g/kg) were carried out on each mouse with a minimum interval of 48 h. The order was determined so as to cancel a potentially confounding effect of a change in body composition of the mice during the 3 study weeks. […] The maltose and the test products were administered directly by the oral route (gastric gavage), diluted in 0.9% saline solution. […] • Main Criterion: […] […] The secondary criteria for evaluation were: […] The AUC (area under the curve) was estimated by the trapezium method.

DPP-IV from pig kidney = molecular target: T2, DPP-IV from pig kidney (Sus scrofa, UniProt P22411); assay: In-vitro determination of the inhibition of DPP-IV by synthetic peptides (Example 14); assay type: biochemical; settings: for IC50: read-out: inhibitory activity of DPP-IV (IC50)
T2 construct: The enzyme used is DPP-IV from pig kidney; purchased Sigma D7052; host or cells: pig kidney
T2 sequence (P22411 whole entry): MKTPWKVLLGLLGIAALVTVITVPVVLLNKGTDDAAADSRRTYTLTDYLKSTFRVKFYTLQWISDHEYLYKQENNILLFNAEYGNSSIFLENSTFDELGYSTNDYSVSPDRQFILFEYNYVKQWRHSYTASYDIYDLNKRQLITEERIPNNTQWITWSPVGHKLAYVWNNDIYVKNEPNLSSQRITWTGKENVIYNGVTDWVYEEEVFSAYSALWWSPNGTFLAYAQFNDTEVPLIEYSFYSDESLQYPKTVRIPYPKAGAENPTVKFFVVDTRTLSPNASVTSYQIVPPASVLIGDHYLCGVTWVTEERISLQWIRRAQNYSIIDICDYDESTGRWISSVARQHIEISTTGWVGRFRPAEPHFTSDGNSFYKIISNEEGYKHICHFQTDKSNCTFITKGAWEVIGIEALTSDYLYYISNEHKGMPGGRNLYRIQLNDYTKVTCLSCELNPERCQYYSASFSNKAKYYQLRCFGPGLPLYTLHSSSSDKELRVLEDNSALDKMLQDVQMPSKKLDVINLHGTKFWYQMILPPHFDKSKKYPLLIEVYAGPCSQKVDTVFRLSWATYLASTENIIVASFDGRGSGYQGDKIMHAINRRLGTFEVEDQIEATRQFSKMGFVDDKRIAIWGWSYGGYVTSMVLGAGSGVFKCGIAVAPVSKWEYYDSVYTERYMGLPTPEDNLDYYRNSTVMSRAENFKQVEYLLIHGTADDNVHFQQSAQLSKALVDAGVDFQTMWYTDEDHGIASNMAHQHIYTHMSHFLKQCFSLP
Procedure: The inhibitory activity of synthetic peptides can be measured in vitro according to the following protocol:
25 μl of the substrate Gly-L-Pro-p-nitroanilide in 0.1 M Tris-HCL buffer (pH 8.0) at 1.6 mM is mixed with 25 μl of the peptide sample or of reference inhibitor at different concentrations. The samples are solubilized beforehand in Tris HCL buffer (pH8.0).
After preincubation at 37° C. for 10 min, 50 μl of the DPP-IV enzyme at a concentration of 0.01 U/ml in 0.1 M Tris-HCL buffer (pH 8.0) is added to the mixture in order to start the reaction. The reaction medium is incubated for 60 min at 37° C. and then the reaction is stopped by adding 100 μl of 1M sodium acetate buffer (pH4).
The quantity of product formed (p-nitroanilide) is measured by reading the absorbance at 385 nm using the Fluostar Omega spectrophotometer (BMG Labtech, Germany).
as §1
The substrate used is Gly-L-Pro-p-nitroanilide hydrochloride (available from Sigma under reference G0513).
The enzyme used is DPP-IV from pig kidney (available from Sigma under reference D7052).
The reference inhibitor is Diprotin A, corresponding to the Ile-Pro-Ile tripeptide (available from Sigma under reference 19759).

[2] = molecular target: recombinant alpha-glucosidase from Saccharomyces cerevisiae, which is a maltase (Saccharomyces cerevisiae, UniProt P53341); assay: biochemical; settings: for inhibition of alpha-glucosidase in words: relative to the AP and VAP peptides
Sequence of recombinant alpha-glucosidase from Saccharomyces cerevisiae, which is a maltase (P53341 whole entry): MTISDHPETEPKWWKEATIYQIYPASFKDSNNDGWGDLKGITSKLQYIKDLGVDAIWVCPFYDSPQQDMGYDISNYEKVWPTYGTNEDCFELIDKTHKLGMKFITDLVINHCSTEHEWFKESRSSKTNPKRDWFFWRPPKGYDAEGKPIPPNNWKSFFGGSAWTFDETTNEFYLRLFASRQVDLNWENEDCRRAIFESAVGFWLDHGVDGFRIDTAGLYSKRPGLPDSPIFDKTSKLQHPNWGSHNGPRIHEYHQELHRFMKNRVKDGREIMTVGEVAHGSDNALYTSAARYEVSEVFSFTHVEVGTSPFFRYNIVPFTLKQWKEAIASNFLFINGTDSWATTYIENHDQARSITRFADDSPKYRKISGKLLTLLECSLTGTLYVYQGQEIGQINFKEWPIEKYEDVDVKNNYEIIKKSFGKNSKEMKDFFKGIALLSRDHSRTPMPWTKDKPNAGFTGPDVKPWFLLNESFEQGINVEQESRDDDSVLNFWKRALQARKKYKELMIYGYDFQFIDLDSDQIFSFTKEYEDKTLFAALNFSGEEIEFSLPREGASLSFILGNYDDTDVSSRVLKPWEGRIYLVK
Procedure: The synthetic peptides were supplied by GENOSPHERE Biotechnologies.
The alpha-glucosidase used is the recombinant alpha-glucosidase from Saccharomyces cerevisiae, which is a maltase.
The samples were solubilized beforehand in deionized water containing 10% of DMSO (dimethyl sulphoxide).
After incubation at 37° C. for 20 minutes, 20 μL of the substrate p-NPG (p-nitrophenyl glucopyranoside) at 2.5 mM (prepared in the same buffer as mentioned above) was added to the mixture in order to start the reaction.
The reaction medium was incubated for 30 minutes at 37° C. and then the reaction was stopped by adding 80 μL of a solution of sodium carbonate (Na2CO3) at 0.3M.
The quantity of product formed (p-nitrophenyl (p-NP) of yellow colour) was measured by spectrophotometry (absorbance at 410 nm, VersaMax™, Microplate Reader).
The test was carried out in a 96-well microplate.
All the inhibition tests were carried out in triplicate.
The percentage inhibition was calculated from the following equation: […]
OD sample assay corresponds to the optical density obtained for the mixture “sample+enzyme+substrate”.
OD assay blank corresponds to the optical density obtained for the mixture “sample+buffer”.
OD control assay corresponds to the optical density obtained for the mixture “buffer+enzyme+substrate”.
OD control blank corresponds to the optical density obtained for the buffer.

α-glucosidase = assay: In-vitro determination of the type of inhibition (Lineweaver-Burk, hydrolysis of p-NPG); assay type: biochemical; settings: straight lines intersect at 1/Vmax
Procedure: The three straight lines are as follows: • Filled circle: […] • Empty circle: test in the presence of 50 μM of AP • Filled triangle: test in the presence of 100 μM of AP
Based on the initial rates, the Lineweaver-Burk representations for each concentration of inhibitor LKP were shown and the type of inhibition was determined. The synthetic LKP peptide was supplied by GENOSPHERE Biotechnologies.
Based on the initial rates, the Lineweaver-Burk representations for each concentration of inhibitor AP were shown and the type of inhibition was determined.

saccharase = saccharase (Homo sapiens, UniProt P14410); settings: in particular saccharase; cited from earlier work
Sequence of saccharase (P14410 whole entry): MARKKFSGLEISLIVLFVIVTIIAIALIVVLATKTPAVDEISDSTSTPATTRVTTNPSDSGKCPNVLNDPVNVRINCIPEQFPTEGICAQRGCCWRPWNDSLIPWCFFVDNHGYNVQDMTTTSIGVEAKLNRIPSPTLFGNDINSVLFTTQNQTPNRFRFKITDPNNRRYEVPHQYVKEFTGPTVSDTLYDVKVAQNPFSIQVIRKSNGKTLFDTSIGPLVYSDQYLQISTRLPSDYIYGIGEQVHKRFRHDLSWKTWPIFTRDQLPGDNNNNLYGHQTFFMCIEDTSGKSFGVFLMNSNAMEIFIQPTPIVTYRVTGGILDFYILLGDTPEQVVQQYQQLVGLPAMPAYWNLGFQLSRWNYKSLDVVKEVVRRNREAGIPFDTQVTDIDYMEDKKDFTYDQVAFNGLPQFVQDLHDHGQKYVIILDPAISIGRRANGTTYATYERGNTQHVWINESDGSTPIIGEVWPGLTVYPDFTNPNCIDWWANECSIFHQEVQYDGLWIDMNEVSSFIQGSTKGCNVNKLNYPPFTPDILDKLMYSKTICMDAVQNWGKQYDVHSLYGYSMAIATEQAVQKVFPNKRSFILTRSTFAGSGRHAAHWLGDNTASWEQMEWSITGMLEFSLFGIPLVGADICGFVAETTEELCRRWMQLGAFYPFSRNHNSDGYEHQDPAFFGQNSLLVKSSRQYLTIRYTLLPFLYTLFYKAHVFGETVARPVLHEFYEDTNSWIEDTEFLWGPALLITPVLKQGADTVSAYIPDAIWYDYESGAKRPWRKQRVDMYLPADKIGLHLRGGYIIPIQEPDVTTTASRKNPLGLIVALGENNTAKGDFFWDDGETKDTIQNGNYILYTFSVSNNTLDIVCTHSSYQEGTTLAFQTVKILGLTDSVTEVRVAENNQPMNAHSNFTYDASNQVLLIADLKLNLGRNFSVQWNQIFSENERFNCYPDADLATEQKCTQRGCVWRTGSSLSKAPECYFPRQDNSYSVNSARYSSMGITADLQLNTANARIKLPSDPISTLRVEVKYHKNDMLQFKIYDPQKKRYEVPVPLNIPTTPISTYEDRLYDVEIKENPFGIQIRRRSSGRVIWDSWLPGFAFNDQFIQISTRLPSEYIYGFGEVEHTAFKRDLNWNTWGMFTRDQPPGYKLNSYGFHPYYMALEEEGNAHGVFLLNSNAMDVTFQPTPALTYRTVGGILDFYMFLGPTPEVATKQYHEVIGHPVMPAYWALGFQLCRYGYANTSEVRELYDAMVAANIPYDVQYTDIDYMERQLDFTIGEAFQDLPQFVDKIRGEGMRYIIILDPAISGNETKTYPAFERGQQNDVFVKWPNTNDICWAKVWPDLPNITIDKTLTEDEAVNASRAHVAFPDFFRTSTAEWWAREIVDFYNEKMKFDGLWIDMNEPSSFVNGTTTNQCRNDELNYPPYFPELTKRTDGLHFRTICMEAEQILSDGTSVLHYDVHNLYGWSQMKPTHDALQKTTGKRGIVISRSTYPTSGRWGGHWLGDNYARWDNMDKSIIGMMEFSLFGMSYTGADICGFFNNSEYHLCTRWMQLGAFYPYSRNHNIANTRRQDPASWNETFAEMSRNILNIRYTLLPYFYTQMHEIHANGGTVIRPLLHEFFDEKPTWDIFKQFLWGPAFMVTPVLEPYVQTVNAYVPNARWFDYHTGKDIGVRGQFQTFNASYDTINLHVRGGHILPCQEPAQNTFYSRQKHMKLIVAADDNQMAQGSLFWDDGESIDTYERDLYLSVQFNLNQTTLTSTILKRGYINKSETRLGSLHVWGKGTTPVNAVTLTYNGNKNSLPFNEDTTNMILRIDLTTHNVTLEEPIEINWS

[3] = Inhibitory activity on α-glucosidase (IC50) in mg/ml
[4] = Table 13, substrate Gly-L-Pro-p-nitroanilide, pH 8.0, 37° C.
[5] = enzyme 1.6 U/ml, p-NPG 20 mM, pH 6.8, 37° C., read-out: Inhibitory activity on α-glucosidase (IC50)
[6] = read-out: Inhibitory activity on α-glucosidase (IC50) in mg/ml (converted)
[7] = Table 1, enzyme 0.2 U/mL, p-NPG 2.5 mM, pH 6.8, 37° C., read-out: Inhibitory activity on α-glucosidase (IC50)
[8] = Inhibitory activity on α-glucosidase (IC50) in mmol/l, enzyme 1.6 U/ml, p-NPG 20 mM, pH 6.8, 37° C.

T1 sequence (P53341 whole entry): as the sequence (P53341 whole entry) above

Row | Compound | IC50 [1, 3] [mM] | IC50 (DPP-IV from pig kidney; [4]) [mM] | IC50 [1, 5] [mM] | IC50 [1, 6] [mM] | IC50 [2, 7] [mM] | inhibition of alpha-glucosidase in words [2] | further results
1 | C[C@H](N)C(=O)N1CCC[C@H]1C(=O)O [AP] (H-Ala-Pro-OH; N-terminus and C-terminus assumed) | 0.0134 | 4.78 ± 0.284 |  |  |  |  | inhibition of α-glucosidase in words ([1]; relative to acarbose, miglitol and voglibose): strongly inhibit; maximum glycaemia value subtracted from the resting value (ΔCmax glycaemia) (db/db mice; 500 mg/kg by gastric gavage, resting value 150 mg/dl): approximately 280 mg/dl; effect on the glycaemia of the mice during the test of tolerance to maltose (db/db mice; 500 mg/kg, alone or in combination): lower the glycaemia; effect of treatment on the maximum glycaemia value (db/db mice; 500 mg/kg): significant effect; effect on the glucose AUC during the oral test of tolerance to maltose (db/db mice; 500 mg/kg, 0-120 minutes): beneficial effect; inhibition of DPP-IV in words (DPP-IV from pig kidney; relative to the reference Diprotin A): very weakly; IC50 ([2]; IC50 on α-glucosidase): 0.0136 ± 0.00092 mM; median inhibitory concentration of alpha-glucosidase (maltase), times lower relative to the reference inhibitors ([2]; relative to acarbose and miglitol): approximately 900 times; type of inhibition of the degradation of p-NPG (α-glucosidase): competitive
2 | CC(C)C[C@H](NC(=O)[C@@H]1CCCN1C(=O)CN)C(=O)O [GPL] (H-Gly-Pro-Leu-OH; N-terminus and C-terminus assumed) |  | 1.85 ± 0.298 | 4.82 ± 0.15 | 4.81 | 4.82 ± 0.15 | weak inhibitors | 
3 | CC[C@H](C)[C@H](N)C(=O)N[C@@H](Cc1ccc(O)cc1)C(=O)O [IY] (H-Ile-Tyr-OH; N-terminus and C-terminus assumed) |  |  | 12.3 ± 0.25 | 12.2 | 12.3 | weak inhibitors | 
4 | NCCCC[C@H](N)C(=O)N[C@@H](Cc1c[nH]c2ccccc12)C(=O)O [KW] (H-Lys-Trp-OH; N-terminus and C-terminus assumed) |  |  | 12.8 ± 0.98 | 12.7 | 12.8 ± 0.98 | weak inhibitors | 
5 | NCCCC[C@H](N)C(=O)N[C@@H](Cc1ccc(O)cc1)C(=O)O [KY] |  |  | 10.96 ± 0.1 | 10.9 | 10.96 ± 0.1 | weak inhibitors | inhibitory activity of DPP-IV (IC50) in mmol/l (DPP-IV from pig kidney; [4]): No inhibition
6 | CC(C)C[C@H](N)C(=O)N[C@@H](CCCCN)C(=O)N1CCC[C@H]1C(=O)O [LKP] (H-Leu-Lys-Pro-OH; N-terminus and C-terminus assumed) | 7.1 |  |  |  |  | weak inhibitors | IC50 [1, 8]: 7.11 ± 0.2 mM; IC50 ([2]; Inhibitory activity on α-glucosidase (IC50) in mM, Table 1, enzyme 0.2 U/mL, p-NPG 2.5 mM, pH 6.8, 37° C.): 7.11 ± 0.2 mM; type of inhibition of the degradation of p-NPG (α-glucosidase): competitive
7 | OCCN1C[C@H](O)[C@@H](O)[C@H](O)[C@H]1CO [Miglitol, miglitol, reference compound] | 37.5 |  |  |  | 39 ± 0.96 |  | IC50 [1, 8]: 37.5 ± 0.69 mM; mode of inhibition of alpha-glucosidase (saccharase): competitively and reversibly
8 | CC(C)[C@H](N)C(=O)N[C@@H](C)C(=O)N1CCC[C@H]1C(=O)NCC(=O)O [VAPG] (H-VAPG-OH; N-terminus and C-terminus assumed) | 4.05 | 2.27 ± 0.131 |  |  |  |  | 

From patent US10500245B2, “Compositions for preventing and/or treating pathological conditions associated with alpha-glucosidase” (UNIVERSITE DE LA ROCHELLE, priority 2014, dated 2019)
